Source: ChEMBL document CHEMBL3991601, “The target landscape of clinical kinase drugs” (Science, 2017)
The source made the active and inactive calls. Cut-off read from the data, not from the text of the source, for most assays here: actives have a measured Kd and inactives only a lower limit.

Columns and labels:
[1] = biological target: AP2-associated protein kinase 1 (Homo sapiens, UniProt Q2M2I8)
[2] = biological target: Adenylate kinase 2, mitochondrial (Homo sapiens, UniProt P54819)
[3] = biological target: Serine/threonine-protein kinase 10 (Homo sapiens, UniProt O94804)
[4] = biological target: T1, Glycogen phosphorylase, liver form (Homo sapiens, UniProt P06737); type: subcellular, K-562, COLO 205, SK-N-BE(2) and MV-4-11, Cell lysate; conditions: read-out: Kd apparent
T1 sequence (P06737 whole entry): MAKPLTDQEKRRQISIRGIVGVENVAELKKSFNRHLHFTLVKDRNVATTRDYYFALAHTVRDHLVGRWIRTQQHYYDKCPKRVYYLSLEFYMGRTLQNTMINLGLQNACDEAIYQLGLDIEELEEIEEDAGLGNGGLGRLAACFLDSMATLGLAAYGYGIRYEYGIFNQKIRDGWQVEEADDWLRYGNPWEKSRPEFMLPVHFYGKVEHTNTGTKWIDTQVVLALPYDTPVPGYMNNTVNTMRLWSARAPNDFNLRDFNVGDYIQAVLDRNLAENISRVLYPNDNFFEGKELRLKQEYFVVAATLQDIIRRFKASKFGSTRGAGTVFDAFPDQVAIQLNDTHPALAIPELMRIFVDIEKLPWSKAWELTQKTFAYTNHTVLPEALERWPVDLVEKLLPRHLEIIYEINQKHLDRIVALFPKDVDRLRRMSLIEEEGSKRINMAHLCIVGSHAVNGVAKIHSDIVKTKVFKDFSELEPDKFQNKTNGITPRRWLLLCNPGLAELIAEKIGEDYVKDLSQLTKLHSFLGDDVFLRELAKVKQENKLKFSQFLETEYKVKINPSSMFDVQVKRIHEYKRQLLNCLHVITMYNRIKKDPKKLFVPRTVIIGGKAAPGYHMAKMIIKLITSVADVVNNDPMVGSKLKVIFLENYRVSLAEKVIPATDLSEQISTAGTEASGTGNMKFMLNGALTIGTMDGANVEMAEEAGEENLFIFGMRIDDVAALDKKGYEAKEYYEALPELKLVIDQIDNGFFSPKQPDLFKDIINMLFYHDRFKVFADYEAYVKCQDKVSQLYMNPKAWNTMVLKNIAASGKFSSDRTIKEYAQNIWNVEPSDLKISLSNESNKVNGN

[5] = biological target: Casein kinase I isoform alpha (Homo sapiens, UniProt P48729)
[6] = biological target: G protein-coupled receptor kinase 6 (Homo sapiens, UniProt P43250)
[7] = biological target: Tyrosine-protein kinase SYK (Homo sapiens, UniProt P43405)
Aurora kinase A = biological target: T2, Aurora kinase A (Homo sapiens, UniProt O14965)
T2 sequence (O14965 whole entry): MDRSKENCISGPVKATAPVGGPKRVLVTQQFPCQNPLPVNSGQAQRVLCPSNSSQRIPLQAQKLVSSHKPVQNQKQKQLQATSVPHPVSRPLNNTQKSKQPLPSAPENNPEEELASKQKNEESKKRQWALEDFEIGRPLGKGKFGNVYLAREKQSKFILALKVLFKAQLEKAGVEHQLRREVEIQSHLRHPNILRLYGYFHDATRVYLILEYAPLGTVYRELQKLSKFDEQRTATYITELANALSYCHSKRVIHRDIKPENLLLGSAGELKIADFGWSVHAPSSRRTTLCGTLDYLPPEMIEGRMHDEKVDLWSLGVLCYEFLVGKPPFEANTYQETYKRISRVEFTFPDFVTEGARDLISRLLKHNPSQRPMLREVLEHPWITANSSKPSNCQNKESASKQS

[8] = biological target: T3, Uncharacterized protein FLJ45252 (Homo sapiens, UniProt Q6ZSR9); conditions: read-out: Kd apparent; k-562, colo 205, sk-n-be(2) and mv-4-11
T3 sequence (Q6ZSR9 whole entry): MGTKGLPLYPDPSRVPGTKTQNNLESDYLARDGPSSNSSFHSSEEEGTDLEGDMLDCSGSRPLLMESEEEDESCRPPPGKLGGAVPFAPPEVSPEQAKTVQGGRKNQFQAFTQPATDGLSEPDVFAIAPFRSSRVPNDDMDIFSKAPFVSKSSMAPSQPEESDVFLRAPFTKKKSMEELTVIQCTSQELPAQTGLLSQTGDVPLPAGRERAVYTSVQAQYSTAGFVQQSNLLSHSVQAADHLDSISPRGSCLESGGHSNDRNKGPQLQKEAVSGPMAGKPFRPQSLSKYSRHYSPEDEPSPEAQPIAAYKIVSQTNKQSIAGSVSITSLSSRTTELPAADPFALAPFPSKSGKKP

[9] = biological target: Tyrosine-protein kinase Yes (Homo sapiens, UniProt P07947)
[10] = biological target: Dual specificity testis-specific protein kinase 1 (Homo sapiens, UniProt Q15569)
[11] = biological target: PAS domain-containing serine/threonine-protein kinase (Homo sapiens, UniProt Q96RG2)
Note: in the data inactive means no Kd found up to 30 µM.

Sequence of Serine/threonine-protein kinase 10 (O94804 whole entry): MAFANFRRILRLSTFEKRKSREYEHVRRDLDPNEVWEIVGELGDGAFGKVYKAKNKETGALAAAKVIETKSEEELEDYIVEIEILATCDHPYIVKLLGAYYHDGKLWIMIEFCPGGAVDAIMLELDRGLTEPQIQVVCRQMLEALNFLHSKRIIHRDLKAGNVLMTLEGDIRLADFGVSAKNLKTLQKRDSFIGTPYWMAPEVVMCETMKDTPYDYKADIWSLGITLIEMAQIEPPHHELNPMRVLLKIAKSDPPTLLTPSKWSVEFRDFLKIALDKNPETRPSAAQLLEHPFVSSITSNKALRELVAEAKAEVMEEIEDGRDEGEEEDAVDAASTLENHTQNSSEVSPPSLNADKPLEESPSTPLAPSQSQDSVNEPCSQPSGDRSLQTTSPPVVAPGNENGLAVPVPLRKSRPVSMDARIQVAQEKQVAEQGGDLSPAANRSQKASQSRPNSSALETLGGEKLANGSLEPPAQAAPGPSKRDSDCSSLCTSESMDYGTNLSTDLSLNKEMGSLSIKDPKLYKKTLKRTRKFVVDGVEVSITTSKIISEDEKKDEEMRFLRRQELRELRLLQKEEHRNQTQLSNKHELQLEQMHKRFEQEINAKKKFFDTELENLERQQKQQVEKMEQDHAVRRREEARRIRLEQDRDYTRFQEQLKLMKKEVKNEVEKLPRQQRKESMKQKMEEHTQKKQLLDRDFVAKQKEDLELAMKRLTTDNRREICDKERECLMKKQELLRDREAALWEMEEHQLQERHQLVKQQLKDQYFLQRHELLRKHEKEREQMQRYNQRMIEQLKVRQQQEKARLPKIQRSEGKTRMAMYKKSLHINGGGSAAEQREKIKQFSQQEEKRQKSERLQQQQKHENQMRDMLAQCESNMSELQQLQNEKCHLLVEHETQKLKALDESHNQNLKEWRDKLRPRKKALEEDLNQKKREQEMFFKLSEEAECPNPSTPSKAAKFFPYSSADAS
Sequence of PAS domain-containing serine/threonine-protein kinase (Q96RG2 whole entry, the tested form may be a part): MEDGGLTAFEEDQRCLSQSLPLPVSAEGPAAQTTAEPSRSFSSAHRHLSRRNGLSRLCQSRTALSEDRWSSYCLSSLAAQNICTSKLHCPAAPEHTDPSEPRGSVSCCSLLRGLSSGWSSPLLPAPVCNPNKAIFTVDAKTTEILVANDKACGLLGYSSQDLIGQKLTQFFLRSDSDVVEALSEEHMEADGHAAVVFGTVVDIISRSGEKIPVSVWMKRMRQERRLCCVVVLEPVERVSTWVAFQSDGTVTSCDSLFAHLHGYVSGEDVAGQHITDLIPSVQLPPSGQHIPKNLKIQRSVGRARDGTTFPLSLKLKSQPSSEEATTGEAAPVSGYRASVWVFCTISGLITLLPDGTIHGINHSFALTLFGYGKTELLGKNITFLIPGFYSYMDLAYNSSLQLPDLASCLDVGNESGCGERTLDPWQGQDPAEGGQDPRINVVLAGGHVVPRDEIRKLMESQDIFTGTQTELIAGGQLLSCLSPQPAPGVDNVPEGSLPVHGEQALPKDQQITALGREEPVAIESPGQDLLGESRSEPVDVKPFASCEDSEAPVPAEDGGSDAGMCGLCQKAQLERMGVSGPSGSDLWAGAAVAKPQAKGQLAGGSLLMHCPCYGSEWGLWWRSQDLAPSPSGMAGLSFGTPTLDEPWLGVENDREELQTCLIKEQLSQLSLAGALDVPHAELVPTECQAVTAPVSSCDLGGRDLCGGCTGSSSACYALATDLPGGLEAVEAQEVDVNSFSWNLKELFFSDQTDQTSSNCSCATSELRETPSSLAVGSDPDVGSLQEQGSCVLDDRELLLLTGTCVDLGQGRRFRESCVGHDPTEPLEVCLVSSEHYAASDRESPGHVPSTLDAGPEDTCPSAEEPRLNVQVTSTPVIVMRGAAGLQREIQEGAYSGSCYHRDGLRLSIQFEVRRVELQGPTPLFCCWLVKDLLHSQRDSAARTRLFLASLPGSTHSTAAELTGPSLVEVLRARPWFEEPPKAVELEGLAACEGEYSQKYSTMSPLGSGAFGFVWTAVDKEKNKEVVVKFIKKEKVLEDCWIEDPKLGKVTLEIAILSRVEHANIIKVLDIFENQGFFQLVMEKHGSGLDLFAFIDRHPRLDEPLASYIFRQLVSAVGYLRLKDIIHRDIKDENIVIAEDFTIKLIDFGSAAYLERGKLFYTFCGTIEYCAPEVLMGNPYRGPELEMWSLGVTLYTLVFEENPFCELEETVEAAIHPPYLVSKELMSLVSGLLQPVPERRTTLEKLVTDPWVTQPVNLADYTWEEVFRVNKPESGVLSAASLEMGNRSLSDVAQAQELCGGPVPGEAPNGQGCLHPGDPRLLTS
Sequence of G protein-coupled receptor kinase 6 (P43250 whole entry): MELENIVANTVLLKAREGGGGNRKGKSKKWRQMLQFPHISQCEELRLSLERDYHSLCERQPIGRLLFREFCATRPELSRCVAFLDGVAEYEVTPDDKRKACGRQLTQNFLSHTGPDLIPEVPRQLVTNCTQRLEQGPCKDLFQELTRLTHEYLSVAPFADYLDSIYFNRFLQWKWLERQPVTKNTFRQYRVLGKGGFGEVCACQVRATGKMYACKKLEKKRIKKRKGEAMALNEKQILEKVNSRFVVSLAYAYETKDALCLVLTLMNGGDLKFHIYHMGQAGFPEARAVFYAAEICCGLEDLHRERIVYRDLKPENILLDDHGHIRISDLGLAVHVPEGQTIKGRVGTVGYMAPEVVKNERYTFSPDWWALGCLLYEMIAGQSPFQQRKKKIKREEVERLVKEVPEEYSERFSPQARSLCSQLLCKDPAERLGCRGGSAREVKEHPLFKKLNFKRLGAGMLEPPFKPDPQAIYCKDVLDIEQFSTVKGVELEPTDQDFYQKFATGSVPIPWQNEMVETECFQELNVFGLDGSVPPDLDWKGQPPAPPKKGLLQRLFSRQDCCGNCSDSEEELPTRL
Sequence of Tyrosine-protein kinase Yes (P07947 whole entry): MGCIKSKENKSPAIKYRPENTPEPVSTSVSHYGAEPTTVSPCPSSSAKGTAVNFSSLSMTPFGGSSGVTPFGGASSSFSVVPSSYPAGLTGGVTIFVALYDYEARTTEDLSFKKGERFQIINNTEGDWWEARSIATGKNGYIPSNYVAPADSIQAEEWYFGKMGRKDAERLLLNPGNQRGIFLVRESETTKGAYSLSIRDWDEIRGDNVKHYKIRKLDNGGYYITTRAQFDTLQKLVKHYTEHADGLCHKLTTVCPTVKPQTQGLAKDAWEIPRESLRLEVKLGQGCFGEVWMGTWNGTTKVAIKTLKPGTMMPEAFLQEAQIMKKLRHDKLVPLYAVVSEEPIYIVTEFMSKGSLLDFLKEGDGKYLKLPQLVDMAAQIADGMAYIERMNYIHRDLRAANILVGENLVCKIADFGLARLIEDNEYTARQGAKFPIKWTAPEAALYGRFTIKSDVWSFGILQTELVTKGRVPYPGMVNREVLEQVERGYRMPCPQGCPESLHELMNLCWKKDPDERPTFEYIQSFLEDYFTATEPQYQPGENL
Sequence of Casein kinase I isoform alpha (P48729 whole entry, canonical isoform): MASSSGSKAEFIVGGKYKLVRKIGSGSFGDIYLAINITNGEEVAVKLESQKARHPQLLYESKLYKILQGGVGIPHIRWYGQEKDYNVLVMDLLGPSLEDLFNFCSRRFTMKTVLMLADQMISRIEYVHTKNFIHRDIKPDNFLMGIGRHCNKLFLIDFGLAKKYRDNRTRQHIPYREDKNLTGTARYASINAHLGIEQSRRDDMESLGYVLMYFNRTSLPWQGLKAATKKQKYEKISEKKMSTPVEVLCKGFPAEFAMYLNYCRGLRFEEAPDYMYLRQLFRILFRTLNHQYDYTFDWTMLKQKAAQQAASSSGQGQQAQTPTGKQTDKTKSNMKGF
Sequence of AP2-associated protein kinase 1 (Q2M2I8 whole entry): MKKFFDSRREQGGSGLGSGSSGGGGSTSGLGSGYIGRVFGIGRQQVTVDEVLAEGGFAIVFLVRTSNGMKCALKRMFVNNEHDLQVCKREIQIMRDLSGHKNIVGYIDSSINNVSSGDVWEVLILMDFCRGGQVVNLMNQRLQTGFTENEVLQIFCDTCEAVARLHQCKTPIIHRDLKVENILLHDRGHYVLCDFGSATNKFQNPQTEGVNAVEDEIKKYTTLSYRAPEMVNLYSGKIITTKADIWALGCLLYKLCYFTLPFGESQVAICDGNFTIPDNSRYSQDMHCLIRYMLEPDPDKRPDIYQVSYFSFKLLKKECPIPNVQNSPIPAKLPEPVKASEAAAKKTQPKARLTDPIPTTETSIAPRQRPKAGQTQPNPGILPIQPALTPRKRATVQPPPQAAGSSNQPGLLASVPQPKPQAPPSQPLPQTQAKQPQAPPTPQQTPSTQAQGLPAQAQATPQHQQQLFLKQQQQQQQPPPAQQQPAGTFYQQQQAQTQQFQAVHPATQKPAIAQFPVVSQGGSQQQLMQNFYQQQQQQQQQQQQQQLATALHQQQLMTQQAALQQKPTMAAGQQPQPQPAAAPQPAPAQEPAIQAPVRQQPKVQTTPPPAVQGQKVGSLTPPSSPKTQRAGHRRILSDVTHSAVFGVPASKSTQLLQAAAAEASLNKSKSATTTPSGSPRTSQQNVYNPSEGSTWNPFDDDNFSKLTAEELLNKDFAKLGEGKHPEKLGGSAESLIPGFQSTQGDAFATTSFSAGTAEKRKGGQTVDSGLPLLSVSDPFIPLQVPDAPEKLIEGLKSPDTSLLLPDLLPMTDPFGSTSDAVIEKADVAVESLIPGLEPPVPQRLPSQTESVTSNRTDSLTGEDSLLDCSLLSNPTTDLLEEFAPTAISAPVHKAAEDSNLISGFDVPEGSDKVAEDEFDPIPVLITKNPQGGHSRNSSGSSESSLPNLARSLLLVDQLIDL

Row | Kd [1] | Kd [2] | Kd [3] | Kd [4] | Kd [5] | Kd [6] | Kd [7] | Kd (Aurora kinase A) | Kd [8] | Kd [9] | Kd [10] | Kd [11] | SMILES
1 | 22.2 µM (active) | > 30 µM (inactive) | > 30 µM (inactive) | > 30 µM (inactive) | > 30 µM (inactive) | > 30 µM (inactive) | > 30 µM (inactive) | > 30 µM (inactive) | 3.36 µM (active) | > 30 µM (inactive) | – | – | C[C@@H](Oc1cc(C(=O)Nc2ccc(C(=O)N3CCN(C)CC3)cc2)nnc1N)c1c(Cl)ccc(F)c1Cl
2 | > 30 µM (inactive) | > 30 µM (inactive) | 0.136 µM (active) | > 30 µM (inactive) | > 30 µM (inactive) | > 30 µM (inactive) | > 30 µM (inactive) | – | > 30 µM (inactive) | 0.094 µM (active) | > 30 µM (inactive) | – | CCNC(=O)C#Cc1ccc2c(c1)NC(=O)/C2=C(\Nc1ccc(CN(C)C)cc1)c1ccccc1
3 | > 30 µM (inactive) | > 30 µM (inactive) | – | > 30 µM (inactive) | – | > 30 µM (inactive) | > 30 µM (inactive) | > 30 µM (inactive) | > 30 µM (inactive) | > 30 µM (inactive) | > 30 µM (inactive) | – | Cc1nc2cc(-c3nn(C(C)C)c4ncnc(N)c34)ccc2o1
4 | > 30 µM (inactive) | > 30 µM (inactive) | > 30 µM (inactive) | > 30 µM (inactive) | – | > 30 µM (inactive) | > 30 µM (inactive) | > 30 µM (inactive) | > 30 µM (inactive) | 0.337 µM (active) | – | – | Nc1ncnc2c1c(-c1cccc(OCc3ccccc3)c1)cn2[C@H]1C[C@@H](CN2CCC2)C1 [AEW-541]
5 | – | > 30 µM (inactive) | – | > 30 µM (inactive) | – | > 30 µM (inactive) | – | – | 2.3 µM (active) | – | – | > 30 µM (inactive) | CNC(=O)c1ccccc1Sc1ccc2c(/C=C/c3ccccn3)n[nH]c2c1 [AXITINIB]
6 | > 30 µM (inactive) | > 30 µM (inactive) | > 30 µM (inactive) | > 30 µM (inactive) | > 30 µM (inactive) | > 30 µM (inactive) | > 30 µM (inactive) | > 30 µM (inactive) | > 30 µM (inactive) | > 30 µM (inactive) | > 30 µM (inactive) | – | CCn1c(C(=O)N(C2CC2)C2CC2)cc2c3c(ncn3C)c(Nc3cc(C)n(C)n3)nc21 [BMS-911543]
7 | > 30 µM (inactive) | > 30 µM (inactive) | > 30 µM (inactive) | > 30 µM (inactive) | > 30 µM (inactive) | > 30 µM (inactive) | > 30 µM (inactive) | > 30 µM (inactive) | > 30 µM (inactive) | > 30 µM (inactive) | > 30 µM (inactive) | – | Cc1cc(Nc2ncc(Cl)c(Nc3ccccc3S(=O)(=O)C(C)C)n2)c(OC(C)C)cc1C1CCNCC1 [CERITINIB]
8 | > 30 µM (inactive) | > 30 µM (inactive) | > 30 µM (inactive) | > 30 µM (inactive) | > 30 µM (inactive) | > 30 µM (inactive) | > 30 µM (inactive) | > 30 µM (inactive) | > 30 µM (inactive) | > 30 µM (inactive) | > 30 µM (inactive) | – | COCC(=O)NC/C=C/c1ccc2ncnc(Nc3ccc(Oc4ccc(C)nc4)c(C)c3)c2c1 [CP-724714]
9 | – | > 30 µM (inactive) | – | > 30 µM (inactive) | – | > 30 µM (inactive) | – | – | > 30 µM (inactive) | – | – | > 30 µM (inactive) | C[C@@H](Oc1cc(-n2cnc3ccc(CN4CCN(C)CC4)cc32)sc1C(N)=O)c1ccccc1C(F)(F)F [GSK-461364]
10 | > 30 µM (inactive) | > 30 µM (inactive) | > 30 µM (inactive) | > 30 µM (inactive) | > 30 µM (inactive) | > 30 µM (inactive) | > 30 µM (inactive) | > 30 µM (inactive) | > 30 µM (inactive) | > 30 µM (inactive) | > 30 µM (inactive) | – | CNC(=O)c1cccc2cc(Oc3ccnc4cc(OCC5(N)CC5)c(OC)cc34)ccc12 [LUCITANIB]
11 | 3.04 µM (active) | > 30 µM (inactive) | > 30 µM (inactive) | > 30 µM (inactive) | > 30 µM (inactive) | – | > 30 µM (inactive) | 0.981 µM (active) | 2.72 µM (active) | 5.56 µM (active) | > 30 µM (inactive) | > 30 µM (inactive) | Cc1nc(Nc2n[nH]c3c2CN(C(=O)N[C@H](CN(C)C)c2ccccc2)C3(C)C)c2sccc2n1 [PF-03758309]
12 | > 30 µM (inactive) | > 30 µM (inactive) | > 30 µM (inactive) | > 30 µM (inactive) | > 30 µM (inactive) | > 30 µM (inactive) | > 30 µM (inactive) | > 30 µM (inactive) | > 30 µM (inactive) | > 30 µM (inactive) | > 30 µM (inactive) | – | CO[C@H]1C[C@@H]2CC[C@@H](C)[C@@](O)(O2)C(=O)C(=O)N2CCCC[C@H]2C(=O)O[C@H]([C@H](C)C[C@@H]2CC[C@@H](OP(C)(C)=O)[C@H](OC)C2)CC(=O)[C@H](C)/C=C(\C)[C@@H](O)[C@@H](OC)C(=O)[C@H](C)C[C@H](C)/C=C/C=C/C=C/1C [RIDAFOROLIMUS]
13 | – | > 30 µM (inactive) | – | > 30 µM (inactive) | – | > 30 µM (inactive) | – | – | > 30 µM (inactive) | – | – | > 30 µM (inactive) | O=C(NOCCO)c1cc(CN2OCCCC2=O)c(F)c(F)c1Nc1ccc(I)cc1F [RO-4987655]
14 | 0.012 µM (active) | > 30 µM (inactive) | > 30 µM (inactive) | > 30 µM (inactive) | > 30 µM (inactive) | – | > 30 µM (inactive) | > 30 µM (inactive) | 0.013 µM (active) | > 30 µM (inactive) | > 30 µM (inactive) | > 30 µM (inactive) | O=c1[nH]ccc2cc(OC3CCNCC3)ccc12 [SAR-407899 FREE BASE]
15 | > 30 µM (inactive) | > 30 µM (inactive) | > 30 µM (inactive) | > 30 µM (inactive) | > 30 µM (inactive) | – | > 30 µM (inactive) | > 30 µM (inactive) | > 30 µM (inactive) | > 30 µM (inactive) | > 30 µM (inactive) | > 30 µM (inactive) | C[C@@H](NC(=O)c1ncnc(N)c1Cl)c1ncc(C(=O)Nc2cc(C(F)(F)F)c(Cl)cn2)s1 [TOVORAFENIB]

Row | SMILES | Kd [1] | Kd [2] | Kd [3] | Kd [4] | Kd [5] | Kd [6] | Kd [7] | Kd (Aurora kinase A) | Kd [8] | Kd [9] | Kd [10] | Kd [11]
16 | O=C(Nc1cc(C(F)(F)F)cc(C(F)(F)F)c1)c1cc(Cl)ccc1O [IMD-0354] | > 30 µM (inactive) | > 30 µM (inactive) | > 30 µM (inactive) | > 30 µM (inactive) | > 30 µM (inactive) | > 30 µM (inactive) | > 30 µM (inactive) | > 30 µM (inactive) | > 30 µM (inactive) | > 30 µM (inactive) | > 30 µM (inactive) | –
17 | CCCCCCCCCCCCCCCCCCOP(=O)([O-])OC1CC[N+](C)(C)CC1 [PERIFOSINE] | > 30 µM (inactive) | > 30 µM (inactive) | > 30 µM (inactive) | > 30 µM (inactive) | > 30 µM (inactive) | – | > 30 µM (inactive) | > 30 µM (inactive) | > 30 µM (inactive) | > 30 µM (inactive) | > 30 µM (inactive) | > 30 µM (inactive)
